Data from patent publication US9695155B2, “Herbicidal substituted pyrimidinyloxy benzene compounds” (E. I. DU PONT DE NEMOURS AND COMPANY, priority 2013, dated 2017).
Read-outs that look alike come from different tables or passages of the source.

Tests used:
wheat = assay: Test A preemergence; assay type: in vivo, Triticum aestivum
How it was run: (§1)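 Visual 0–100 rating (100 = complete control) taken about 10 d post-treatment relative to untreated checks. Preemergence: directed soil spray on sown loam/sand pots. Postemergence: seedlings 2–10 cm, 1–2 leaf. Non-phytotoxic solvent formulation with surfactant.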

barnyardgrass [1] = assay: Test B flooded paddy test; assay type: in vivo, Echinochloa crus-galli; settings: Flood, 250 g ai/ha, 0 to 100 scale where 0 is no effect and 100 is complete control; for pest or weed control at 250 g/ha: Echinochloa crus-galli, read-out: Plant response rating, Barnyardgrass
How it was run: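 2-leaf stage plants; pots flooded to 3 cm, compound added to paddy water, depth maintained. Greenhouse 13–15 d. Visual rating vs untreated controls, 0 (no effect) to 100 (complete control); dash = no result.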

corn = assay: Test A postemergence; assay type: in vivo, Zea mays; settings: for Corn plant response rating (crop injury, 0 = no effect, 100 = complete kill) at 125 g/ha / plant injury at 500 g/ha: Zea mays, post-emergence, 240 h; for plant injury at 500 g/ha: read-out: Plant response rating Corn
How it was run: as §1

barnyardgrass [2] = assay: Test A preemergence; assay type: in vivo, Echinochloa crus-galli; settings: for pest or weed control at 125 g/ha / pest or weed control at 500 g/ha: Echinochloa crus-galli, pre-emergence, 240 h
How it was run: as §1

velvetleaf = assay: Test A preemergence; assay type: in vivo, Abutilon theophrasti
How it was run: as §1

morningglory = assay: Test A preemergence; assay type: in vivo, Ipomoea spp.; settings: for pest or weed control at 500 g/ha: Ipomoea, pre-emergence, 240 h, read-out: Morningglory plant response rating
How it was run: as §1

chickweed = assay: Test C postemergence; assay type: in vivo, Stellaria media; settings: for Plant response rating (0 to 100), Chickweed: 16 g ai/ha, 0 is no effect, 100 is complete control
Description: (§2) Seeds of plant species selected from blackgrass (Alopecurus myosuroides), Italian ryegrass (Lolium multiflorum), wheat, winter (winter wheat, Triticum aestivum), galium (catchweed bedstraw, Galium aparine), corn (Zea mays), large (Lg) crabgrass (Digitaria sanguinalis), giant foxtail (Setaria faberii), johnsongrass (Sorghum halepense), lambsquarters (Chenopodium album), morningglory (Ipomoea coccinea), yellow nutsedge (Cyperus esculentus), pigweed (Amaranthus retroflexus), ragweed (common ragweed, Ambrosia elatior), soybean (Glycine max), barnyardgrass (Echinochloa crus-galli), oilseed rape (Brassica napus), waterhemp (common waterhemp, Amaranthus rudis), kochia (Kochia scoparia), wild oat (Avena fatua), surinam grass (Brachiaria decumbens), foxtail, green (green foxtail, Setaria viridis), goosegrass (Eleusine indica), bromegrass, downy (downy bromegrass, Bromus tectorum), nightshade (eastern black nightshade, Solanum ptycanthum), cocklebur (common cocklebur, Xanthium strumarium), cupgrass, woolly (woolly cupgrass, Eriochloa villosa), bermudagrass (Cynodon dactylon), sunflower, (common oilseed sunflower, Helianthus annuus), Russian thistle (Salsola kali), and velvetleaf (Abutilon theophrasti) were planted into a blend of loam soil and sand and treated preemergence with test chemicals formulated in a non-phytotoxic solvent mixture which included a surfactant.
(§3) At the same time, plants selected from these crop and weed species and also barley, winter (winter barley, Hordeum vulgare), windgrass (Apera spica-venti), chickweed (common chickweed, Stellaria media), deadnettle (henbit deadnettle, Lamium amplexicaule), and canarygrass (littleseed canarygrass, Phalaris minor) were planted in pots containing Redi-Earth® planting medium (Scotts Company, 14111 Scottslawn Road, Marysville, Ohio 43041) comprising spaghnum peat moss, vermiculite, wetting agent and starter nutrients and treated with postemergence applications of test chemicals formulated in the same manner. Plants ranged in height from 2 to 18 cm (1- to 4-leaf stage) for postemergence treatments. Treated plants and controls were maintained in a greenhouse for 13 to 15 days, after which time all species were compared to controls and visually evaluated. Plant response ratings, summarized in Table C, are based on a scale of 0 to 100 where 0 is no effect and 100 is complete control. A dash (-) response means no test result.

wild oat = assay: Test C postemergence; assay type: in vivo, Avena fatua; settings: for Plant response rating (0 to 100), Oat, Wild: 16 g ai/ha, 0 is no effect, 100 is complete control
Description: as §2, §3

Italian ryegrass = assay: Test C preemergence; assay type: in vivo, Lolium multiflorum; settings: Lolium multiflorum, pre-emergence
Description: as §2, §3

soybean = assay: Test C preemergence; assay type: in vivo, Glycine max; settings: Glycine max, pre-emergence
Description: as §2, §3

galium = assay: Test C preemergence; assay type: in vivo, Galium aparine; settings: Galium, pre-emergence
Description: as §2, §3

large (Lg) crabgrass = assay: Test C preemergence; assay type: in vivo, Digitaria sanguinalis; settings: Digitaria sanguinalis, pre-emergence
Description: as §2, §3

[3] = 125 g ai/ha, 0 to 100 scale where 0 is no effect and 100 is complete control
[4] = 500 g ai/ha, 0 to 100 scale, 0 no effect, 100 complete control, approx. 10 days
[5] = 500 g ai/ha, 0 to 100 scale, 0 no effect, 100 complete control
[6] = Triticum aestivum, pre-emergence, 240 h, 500 g ai/ha, 0 to 100 scale, 0 no effect, 100 complete control, approx. 10 days, read-out: Wheat plant response rating
[7] = 500 g ai/ha, 0 to 100 scale, 0 no effect, 100 complete control, approx. 10 days, read-out: Barnyardgrass plant response rating
[8] = Abutilon theophrasti, pre-emergence, 240 h, 500 g ai/ha, 0 to 100 scale, 0 no effect, 100 complete control, approx. 10 days, read-out: Velvetleaf plant response rating
[9] = 125 g ai/ha, postemergence, visual rating, scale 0 to 100 (0 no effect, 100 complete control)
[10] = Postemergence, 62 g ai/ha, scale 0 to 100 (0 no effect, 100 complete control)
[11] = 31 g ai/ha, postemergence, visual rating, scale 0 to 100 (0 no effect, 100 complete control), 13 to 15 days

SMILES: Clc1cnc(Oc2ccccc2-n2cc(Cl)cn2)nc1 [Compound 3]
- Wheat plant response rating (wheat; [3]): 0
- Wheat plant response rating (wheat; [4]): 10
- Plant response rating, Barnyardgrass (barnyardgrass [1]): 0
- Plant response rating, Corn (corn; [3]): 0
- Plant response rating, Corn (corn; [5]): 40
- Barnyardgrass plant response rating (barnyardgrass [2]; [3]): 60
- Barnyardgrass plant response rating (barnyardgrass [2]; [4]): 100
- Velvetleaf plant response rating (velvetleaf; [3]): 70
- Velvetleaf plant response rating (velvetleaf; [4]): 90
- Morningglory plant response rating (morningglory; [3]): 0
- Morningglory plant response rating (morningglory; [4]): 20

SMILES: FC(F)(F)c1ccn(-c2ccccc2Oc2ncc(Cl)cn2)n1 [Compound 2, 5-chloro-2-[2-[3-(trifluoromethyl)-1H-pyrazol-1-yl]phenoxy]pyrimidine]
- plant injury at 125 g/ha (wheat; Triticum aestivum, pre-emergence, 240 h, 125 g ai/ha, 0 to 100 scale where 0 is no effect and 100 is complete control, read-out: Wheat plant response rating): 0%
- plant injury at 500 g/ha (wheat; [6]): 0%
- pest or weed control at 250 g/ha (barnyardgrass [1]): 0%
- Corn plant response rating (crop injury, 0 = no effect, 100 = complete kill) at 125 g/ha (corn; [3]): 0%
- plant injury at 500 g/ha (corn; [5]): 40%
- pest or weed control at 125 g/ha (barnyardgrass [2]; 125 g ai/ha, 0 to 100 scale where 0 is no effect and 100 is complete control, read-out: Barnyardgrass plant response rating): 30%
- pest or weed control at 500 g/ha (barnyardgrass [2]; [7]): 90%
- pest or weed control at 125 g/ha (velvetleaf; Abutilon theophrasti, pre-emergence, 240 h, 125 g ai/ha, 0 to 100 scale where 0 is no effect and 100 is complete control, read-out: Velvetleaf plant response rating): 30%
- pest or weed control at 500 g/ha (velvetleaf; [8]): 70%
- pest or weed control at 500 g/ha (morningglory; [4]): 20%

SMILES: FCc1cccc(Oc2ncc(Br)cn2)c1-n1cc(C(F)(F)F)cn1 [Compound 120]
- Plant response rating, Barnyardgrass (barnyardgrass [1]): 0
- Plant response rating (0 to 100), Chickweed (chickweed; postemergence): 40
- Plant response rating, Chickweed (chickweed; [9]): 80
- Plant response rating, Chickweed (chickweed; [10]): 70
- Plant response rating, Corn (corn; 31 g ai/ha, 0 to 100 scale, 0 no effect, 100 complete control): 10
- Plant response rating, Corn (corn; [3]): 50
- Barnyardgrass plant response rating (0 to 100 scale) (barnyardgrass [2]; 31 g ai/ha): 20
- Plant response rating, Barnyardgrass (barnyardgrass [2]; [3]): 70
- Plant response rating (0 to 100), Oat, Wild (wild oat; postemergence): 0
- Plant response rating, Oat, Wild (wild oat; [9]): 5
- Plant response rating, Oat, Wild (wild oat; [10]): 5

SMILES: Fc1cccc(Oc2ncc(Cl)cn2)c1-n1cc(C2CC2)nn1 [Compound 155]
- Plant response rating, Barnyardgrass (barnyardgrass [1]): 40
- Plant response rating (0 to 100), Chickweed (chickweed; postemergence): 90
- Chickweed plant response rating (chickweed; [11]): 80
- Plant response rating, Chickweed (chickweed; [9]): 90
- Plant response rating, Chickweed (chickweed; [10]): 75
- Plant response rating, Corn (corn; 1000 g ai/ha, 0 to 100 scale, 0 no effect, 100 complete control): 100
- Barnyardgrass plant response rating (barnyardgrass [2]; 1000 g ai/ha, 0 to 100 scale, 0 no effect, 100 complete control, approx. 10 days): 100
- Plant response rating (0 to 100), Oat, Wild (wild oat; postemergence): 0
- Oat, Wild plant response rating (wild oat; [11]): 0
- Plant response rating, Oat, Wild (wild oat; [9]): 25
- Plant response rating, Oat, Wild (wild oat; [10]): 5

SMILES: FC(F)(F)c1cnn(-c2ccccc2Oc2ncc(Br)cn2)c1 [Compound 18, 5-bromo-2-[2-[4-(trifluoromethyl)-1H-pyrazol-1-yl]phenoxy]pyrimidine]
- Plant response rating, Wheat (wheat; [3]): 0
- plant injury at 500 g/ha (wheat; [6]): 70%
- pest or weed control at 62 g/ha (Italian ryegrass; 62 g ai/ha, preemergence, scale 0 (no effect) to 100 (complete control), read-out: Ryegrass, Italian plant response rating): 5%
- pest or weed control at 125 g/ha (Italian ryegrass; 125 g ai/ha, preemergence, scale 0 (no effect) to 100 (complete control), read-out: Ryegrass, Italian plant response rating): 45%
- pest or weed control at 250 g/ha (Italian ryegrass; 250 g ai/ha, preemergence, scale 0 (no effect) to 100 (complete control), read-out: Ryegrass, Italian plant response rating): 85%
- pest or weed control at 31 g/ha (Italian ryegrass; Preemergence, 31 g ai/ha, scale 0 to 100, 0 no effect, 100 complete control, read-out: Plant response rating, Ryegrass, Italian): 0%
- pest or weed control at 250 g/ha (barnyardgrass [1]): 30%
- Corn plant response rating (crop injury, 0 = no effect, 100 = complete kill) at 125 g/ha (corn; [3]): 30%
- plant injury at 500 g/ha (corn; [5]): 90%
- pest or weed control at 125 g/ha (barnyardgrass [2]; 125 g ai/ha, 0 to 100 scale where 0 is no effect and 100 is complete control, read-out: Plant response rating, Barnyardgrass): 90%
- pest or weed control at 500 g/ha (barnyardgrass [2]; [7]): 100%
- plant injury at 62 g/ha (soybean; 62 g ai/ha, preemergence, scale 0 (no effect) to 100 (complete control), read-out: Soybean plant response rating): 65%
- plant injury at 125 g/ha (soybean; 125 g ai/ha, preemergence, scale 0 (no effect) to 100 (complete control), read-out: Soybean plant response rating): 85%
- plant injury at 250 g/ha (soybean; 250 g ai/ha, preemergence, scale 0 (no effect) to 100 (complete control), read-out: Soybean plant response rating): 85%
- plant injury at 31 g/ha (soybean; Preemergence, 31 g ai/ha, scale 0 to 100, 0 no effect, 100 complete control, read-out: Plant response rating, Soybean): 25%
- Plant response rating, Velvetleaf (velvetleaf; [3]): 90
- pest or weed control at 500 g/ha (velvetleaf; [8]): 90%
- pest or weed control at 62 g/ha (galium; 62 g ai/ha, preemergence, scale 0 (no effect) to 100 (complete control), read-out: Galium plant response rating): 95%
- pest or weed control at 125 g/ha (galium; 125 g ai/ha, preemergence, scale 0 (no effect) to 100 (complete control), read-out: Galium plant response rating): 100%
- pest or weed control at 250 g/ha (galium; 250 g ai/ha, preemergence, scale 0 (no effect) to 100 (complete control), read-out: Galium plant response rating): 100%
- pest or weed control at 31 g/ha (galium; Preemergence, 31 g ai/ha, scale 0 to 100, 0 no effect, 100 complete control, read-out: Plant response rating, Galium): 90%
- Plant response rating, Morningglory (morningglory; [3]): 0
- pest or weed control at 500 g/ha (morningglory; [4]): 40%
- pest or weed control at 62 g/ha (large (Lg) crabgrass; 62 g ai/ha, preemergence, scale 0 (no effect) to 100 (complete control), read-out: Crabgrass, Large plant response rating): 100%
- pest or weed control at 125 g/ha (large (Lg) crabgrass; 125 g ai/ha, preemergence, scale 0 (no effect) to 100 (complete control), read-out: Crabgrass, Large plant response rating): 100%
- pest or weed control at 250 g/ha (large (Lg) crabgrass; 250 g ai/ha, preemergence, scale 0 (no effect) to 100 (complete control), read-out: Crabgrass, Large plant response rating): 100%
- pest or weed control at 31 g/ha (large (Lg) crabgrass; Preemergence, 31 g ai/ha, scale 0 to 100, 0 no effect, 100 complete control, read-out: Plant response rating, Crabgrass, Large): 75%
